Entries after “also recorded” stand apart in the source; their conditions may differ. Residues, ends and D or L forms follow the SMILES beside them.
Tests used:
Format in all cases: biochemical
Set-up in all cases: purchased Lee Biosolutions (St. Louis, Mo.)
MPO [1] = target: T1, MPO (Homo sapiens, UniProt P05164); assay: MPO-mediated nitration of LDL (dot blot); settings: MPO 50 nM, H2O2 50 μM, NaNO2 50 μM, 37° C., 4 h
T1 sequence (P05164 49-745): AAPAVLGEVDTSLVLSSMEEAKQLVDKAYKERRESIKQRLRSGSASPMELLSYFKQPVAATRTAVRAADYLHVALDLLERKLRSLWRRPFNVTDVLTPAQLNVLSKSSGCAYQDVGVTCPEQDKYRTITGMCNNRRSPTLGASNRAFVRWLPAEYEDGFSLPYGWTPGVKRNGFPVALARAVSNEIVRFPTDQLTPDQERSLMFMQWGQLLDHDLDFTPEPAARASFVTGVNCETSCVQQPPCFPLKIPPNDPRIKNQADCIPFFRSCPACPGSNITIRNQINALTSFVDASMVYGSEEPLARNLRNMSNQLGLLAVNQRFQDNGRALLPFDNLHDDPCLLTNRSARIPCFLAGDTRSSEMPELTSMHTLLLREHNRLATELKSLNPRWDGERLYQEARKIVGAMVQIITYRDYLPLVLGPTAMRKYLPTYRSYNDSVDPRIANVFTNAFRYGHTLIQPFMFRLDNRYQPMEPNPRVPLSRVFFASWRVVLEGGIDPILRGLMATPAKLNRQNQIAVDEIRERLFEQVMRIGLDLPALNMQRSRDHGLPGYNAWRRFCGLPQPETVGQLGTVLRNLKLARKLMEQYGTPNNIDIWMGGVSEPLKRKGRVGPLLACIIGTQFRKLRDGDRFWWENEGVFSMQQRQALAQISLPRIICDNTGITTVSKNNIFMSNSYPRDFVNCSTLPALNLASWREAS
Description: MPO-mediated Nitration of LDL: LDL (0.5 mg/mL) was incubated with MPO (50 nM), H2O2 (50 μM), NaNO2 (50 μM) and increasing concentrations of KYC in phosphate buffer (100 mM, pH 7.4) containing DTPA (100 μM) at 37° C. for 4 h. Reactions were stopped by addition of catalase (2,000 units/mL). Formation of NO2Tyr was assessed by dot blot analysis. Briefly, LDL solutions were mixed with 1% SDS and centrifuged (12000 g, 15 min) Aliquots of supernatants were applied to a nitrocellulose membrane with a dot blot apparatus (Biorad model: Bio-Dot). The levels of NO2Tyr were visualized using a rabbit polyclonal anti-NO2Tyr antibody (EMD, Gibbstown, N.J.) and the ECL plus kit from Thermo-Peirce (Rockford, Ill.).

MPO [2] = target: T1, MPO; assay: MPO-mediated LDL oxidation (conjugated diene formation, 234 nm); settings: for Conjugated diene formation in LDL (in words): MPO/H2O2 (300 μM)/nitrite, more than 2 hours
Description: MPO-mediated oxidation of LDL. […] LDL oxidation was monitored at 234 nm at room temperature on a HP UV/VIS spectrometer. Absorbance traces represent the average of duplicate experiments.
MPO-mediated LDL Oxidation. […] Rates of LDL oxidation were monitored at room temperature at 234 nm, the wavelength maximum for conjugated dienes.
MPO-mediated LDL Conjugated Diene Formation: Reaction mixtures contained LDL (0.15 mg/mL), NaNO2 (100 μM), H2O2 (100 μM), MPO (20 nM) and increasing concentrations of KYC or equimolar concentrations of various compounds in a phosphate buffer (100 mM, pH 7.4) containing DTPA (100 μM). Rates of LDL conjugated diene formation were determined by following changes in absorbance at 234 nm, the wavelength maximum for conjugated dienes, on a UV-Vis spectrophotometer (Agilent Model 8453) at room temperature.

MPO [3] = target: T1, MPO; assay: MPO-catalyzed HOCl production (taurine/TMB assay)
Description: MPO-mediated HOCl Production. MPO (20 nM) was incubated with H2O2 (50 μM), NaCl (150 mM), taurine (5 mM) and increasing concentrations of KYC in phosphate buffer (100 mM, pH 7.4) which also contained diethylene triamine pentaacetic acid (DTPA, 100 μM) to prevent non-specific, divalent metal cation oxidation for 30 min. Reactions were halted by addition of catalase. Chlorotaurine was quantified using the 3,3-,5,5-tetramethylbenzidine (TMB) assay. Briefly, 400 μL of reaction solution was mixed with 100 μL of 2 mM TMB, 100 μM NaI containing 10% dimethylformamide (DMF) in 400 mM acetate buffer (pH 5.4). After 5 min, absorbance (650 nm) was recorded on a UV/Vis spectrophotometer (Agilent Model 8453).
MPO-catalyzed HOCl Production: MPO (20 nM) was incubated with H2O2 (50 μM), NaCl (150 mM), taurine (5 mM) and increasing concentrations of KYC in a phosphate buffer (100 mM, pH 7.4) containing diethylene triamine pentaacetic acid (DTPA, 100 μM) to prevent non-specific, divalent metal cation oxidation for 30 min. Reactions were halted by addition of catalase (2,000 units/mL). Chlorotaurine was quantified using the TMB assay (66). Briefly, 400 μL of reaction solution was mixed with 100 μL of 2 mM TMB, 100 μM NaI containing 10% dimethylformamide (DMF) in 400 mM acetate buffer (pH 5.4). After 5 min, absorbance (650 nm) was recorded on a UV/Vis spectrophotometer (Agilent Model 8453).

CC(=O)N[C@@H](CCCCN)C(=O)N[C@@H](Cc1ccc(O)cc1)C(=O)N[C@@H](CS)C(N)=O [KYC, N-acetyl Lysyltyrosylcysteine Amide] (Ac-Lys-Tyr-Cys-NH2)
NO2Tyr in LDL (in words) (MPO [1]): markedly reduces
Conjugated diene formation in LDL (in words) (MPO [2]; 20 μM KYC): totally suppresses
MPO/H2O2/nitrite-mediated LDL oxidation (in words) (MPO [2]; 25 μM, H2O2 100 μM, NaNO2 100 μM): completely suppressed
MPO/H2O2-mediated LDL oxidation in the absence of nitrite (in words) (MPO [2]; 25 μM, without NaNO2): inhibited; also recorded: did not increase LDL oxidation
Conjugated diene formation in LDL (in words) (MPO [2]; 100 μM KYC): totally suppresses
Effect on MPO HOCl production at equimolar concentration (in words) (MPO [3]; 12.5 μM): comparable to that of tryptophan; also recorded: significantly more effective
MPO-dependent HOCl production at 25 μM (in words) (MPO [3]; 25 μM peptide): completely inhibited; also recorded: completely ablated
IC50 (MPO [3]; MPO 20 nM, H2O2 50 μM, NaCl 150 mM, taurine 5 mM, 30 min, read-out: IC50 for inhibition of MPO-catalyzed HOCl formation): ~7 µM

— US8937039B2, “Peptide-based peroxidase inhibitors and methods of using same” (The Medical College of Wisconsin, Inc., priority 2009, dated 2015)
